Format in all cases: in vivo
For one data set, the system named is Lolium multiflorum Lam. The data set can be described thus: Test Example 4: herbicidal effect by soil treatment (symbol K). The following applies: 320 g/ha. An outline of the steps:
(§1)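 Seeds were sown in sterilized diluvial soil, covered with about 1.5 cm of soil, and the soil surface was sprayed with a water-diluted emulsion of the compound at a predetermined rate. Plants grew in a greenhouse at 25° C. to 30° C.; effects were scored visually 3 weeks after application.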

In data set [1] the test system is Amaranthus retroflexus. Put plainly: Test Example 4: herbicidal effect by soil treatment (symbol N). The note with it: 320 g/ha. In short, it runs like this: as §1
Another data set deals with Leptochloa chinensis. Put plainly: Test Example 3: herbicidal effect by foliage application, Wagner pot (symbol D). The note with it: application herbicide amount 320 g/ha. In short, it runs like this: (§2)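 Scoring took place 3 weeks after application, using fixed criteria. Plants had been raised from seed for 14 days at 25 to 30 °C in submerged alluvial soil before a diluted emulsion of the test compound was sprayed uniformly on the leaves.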

For data set [2], the system named is Echinochloa crus-galli var. crus-galli. Put plainly: Test Example 4: herbicidal effect by soil treatment (symbol H). The note with it: 320 g/ha. In short, it runs like this: as §1
For a further data set, the system named is rapeseed. Put plainly: Test Example 4: effect on crop by soil treatment (symbol g). The note with it: 320 g/ha. In short, it runs like this:
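Soil-treatment setup: crop and weed seeds were spot-sown into sterilized diluvial soil, then buried beneath approximately 1.5 cm of it, and the boxes were housed in a 25–30° C. greenhouse.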

Another data set relates to beet. The data set can be described thus: Test Example 5: effect on crop by foliage application, plastic box (symbol f). The following applies: 320 g/ha, 3 weeks after application. An outline of the steps:
(§3)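 Greenhouse culture at 25° C. to 30° C. followed spot-like sowing into sterilized diluvial soil, with seed covered by roughly 1.5 cm of soil.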

For the next data set, the system named is Veronica persica. Put plainly: Test Example 5: herbicidal effect by foliage application, plastic box (symbol R). The note with it: 320 g/ha, 3 weeks after application. An outline of the steps:
(§4)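 Herbicide, formulated as an emulsion and diluted in water, is sprayed onto the aerial parts of 14-day seedlings. These were grown at 25° C. to 30° C. in sterilized diluvial soil; effects are graded after 3 weeks.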

Another data set concerns wheat. The data set can be described thus: Test Example 5: effect on crop by foliage application, plastic box (symbol e). The following applies: 320 g/ha, 3 weeks after application. An outline of the steps:
as §3

The next data set relates to Avena fatua. The data set can be described thus: Test Example 5: herbicidal effect by foliage application, plastic box (symbol I). The following applies: 320 g/ha, 3 weeks after application. An outline of the steps: as §4
Data set [3] relates to Digitaria ciliaris. Put plainly: Test Example 5: herbicidal effect by foliage application, plastic box (symbol F). The note with it: 320 g/ha, 3 weeks after application. In short, it runs like this: as §4
For data set [4], the system named is Echinochloa oryzacola Vasing. The data set can be described thus: Test Example 2: herbicidal activity, application during weed generation in submerged conditions (symbol A). The note with it: Table 23; application herbicide amount 320 g/ha; grade 0-5 by criteria of Test Example 1. In short, it runs like this: (§5)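 Read-out: herbicidal effect on each species rated on a visual scale 3 weeks after treatment. Plants were raised together from seed in flooded alluvial soil (4 cm water) at 25° C. to 30° C. and treated at one to two leaves by water-surface application of diluted emulsion.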

For the next data set, the system named is Abutilon theophrasti. The data set can be described thus: Test Example 4: herbicidal effect by soil treatment (symbol M). The following applies: 320 g/ha. An outline of the steps:
as §1

The test system of a further data set is Apera spica-venti. The data set can be described thus: Test Example 4: herbicidal effect by soil treatment (symbol L). The note with it: 320 g/ha. An outline of the steps: as §1
In another data set the test system is Chenopodium album. The data set can be described thus: Test Example 5: herbicidal effect by foliage application, plastic box (symbol O). The note with it: 320 g/ha, 3 weeks after application. An outline of the steps: as §4
Another data set concerns rice plant. The data set can be described thus: Test Example 5: effect on crop by foliage application, plastic box (symbol b). The note with it: 320 g/ha, 3 weeks after application. An outline of the steps:
as §3

In another data set the test system is Scirpus juncoides. The data set can be described thus: Test Example 2: herbicidal activity, application during weed generation in submerged conditions (symbol B). The note with it: Table 23; application herbicide amount 320 g/ha; grade 0-5 by criteria of Test Example 1. An outline of the steps:
as §5

Data set [5] deals with Digitaria ciliaris. Put plainly: Test Example 4: herbicidal effect by soil treatment (symbol F). The following applies: 320 g/ha. An outline of the steps: as §1
For data set [6], the system named is Echinochloa crus-galli var. crus-galli. Put plainly: Test Example 3: herbicidal effect by foliage application, Wagner pot (symbol H). The note with it: application herbicide amount 320 g/ha. An outline of the steps:
as §2

Data set [7] relates to Amaranthus retroflexus. The data set can be described thus: Test Example 5: herbicidal effect by foliage application, plastic box (symbol N). The note with it: 320 g/ha, 3 weeks after application. An outline of the steps: as §4
Another data set relates to Stellaria media. The data set can be described thus: Test Example 5: herbicidal effect by foliage application, plastic box (symbol P). The following applies: 320 g/ha, 3 weeks after application. In short, it runs like this:
as §4

This is an account of results in patent US11000033B2, “Ketone or oxime compound, and herbicide” (NISSAN CHEMICAL CORPORATION, priority 2014, dated 2021).

The structures appear in SMILES notation.

Consider `CON=C(C)CC1CC(OC(=O)c2ccccc2C(F)(F)F)=C(c2c(C)cc(C)cc2C)C1=O` (stereo not drawn) [1-154], for which the “K: Lolium multiflorum Lam., herbicidal effect grade” value in the data set with Lolium multiflorum Lam. is reported as 5 (Herbicidal ratio of 90% or more (almost completely withered)). Further, the “N: Amaranthus retroflexus, herbicidal effect grade” value in the data set on Amaranthus retroflexus [1] was 4 (Herbicidal ratio of 70% or higher and lower than 90%). Besides, in the data set on Leptochloa chinensis, the “herbicidal effect on D (Leptochloa chinensis), grade 0-5” value (“herbicidal effect on D” for short) is 5 (Herbicidal ratio of 90% or more (almost completely withered)). Moreover, the “H: Echinochloa crus-galli var. crus-galli, herbicidal effect grade” value in data set [2] is on record as 5 (Herbicidal ratio of 90% or more (almost completely withered)). Moreover, in the data set on rapeseed, the “g: rapeseed, effect grade on crop” value is 4 (Herbicidal ratio of 70% or higher and lower than 90%). Besides, the “f: beet, effect on crop (criteria 0-5)” value in the data set on beet was 1 (Herbicidal ratio of 5% or higher and lower than 20%). Besides, in the data set with Veronica persica, the “R: Veronica persica, herbicidal effect (criteria 0-5)” value is 3 (Herbicidal ratio of 40% or higher and lower than 70%). In addition, in the data set on wheat, the “e: wheat, effect on crop (criteria 0-5)” value is given as 5 (Herbicidal ratio of 90% or more (almost completely withered)). In the data set on Avena fatua, the “I: Avena fatua, herbicidal effect (criteria 0-5)” value is given as 5 (Herbicidal ratio of 90% or more (almost completely withered)). Besides, the “F: Digitaria ciliaris, herbicidal effect (criteria 0-5)” value in the data set with Digitaria ciliaris [3] is listed as 5 (Herbicidal ratio of 90% or more (almost completely withered)). The “Herbicidal effect grade, A: Echinochloa oryzacola Vasing.” value in [4] is recorded as 5 (Herbicidal ratio of 90% or more (almost completely withered)). Besides, the “M: Abutilon theophrasti, herbicidal effect grade” value (shortened to “M: Abutilon theophrasti”) in the data set on Abutilon theophrasti was 4 (Herbicidal ratio of 70% or higher and lower than 90%). Also, the “L: Apera spica-venti, herbicidal effect grade” value (shortened to “L: Apera spica-venti”) in the data set on Apera spica-venti is given as 5 (Herbicidal ratio of 90% or more (almost completely withered)). The “O: Chenopodium album, herbicidal effect (criteria 0-5)” value with Chenopodium album is 1 (Herbicidal ratio of 5% or higher and lower than 20%). Further, the “b: directly sowed rice plant, effect on crop (criteria 0-5)” value in the data set on rice plant is listed as 5 (Herbicidal ratio of 90% or more (almost completely withered)). In the data set on Scirpus juncoides, the “Herbicidal effect grade, B: Scirpus juncoides” value (“Herbicidal effect grade, B” below) was 4 (Herbicidal ratio of 70% or higher and lower than 90%). For the same compound, the “F: Digitaria ciliaris, herbicidal effect grade” value with Digitaria ciliaris [5] was 5 (Herbicidal ratio of 90% or more (almost completely withered)). Further, in [6], the “herbicidal effect on H (Echinochloa crus-galli var. crus-galli), grade 0-5” value (“herbicidal effect on H” below) is 5 (Herbicidal ratio of 90% or more (almost completely withered)). The “N: Amaranthus retroflexus, herbicidal effect (criteria 0-5)” value in the data set on Amaranthus retroflexus [7] was 3 (Herbicidal ratio of 40% or higher and lower than 70%). Besides, the “P: Stellaria media, herbicidal effect (criteria 0-5)” value in the data set on Stellaria media is 2 (Herbicidal ratio of 20% or higher and lower than 40%).
Regarding `CC(=O)C(C(C)=O)C1CC(O)=C(c2c(C)cc(C)cc2C)C1=O` (stereo not drawn) [2-002], the “K: Lolium multiflorum Lam., herbicidal effect grade” value with Lolium multiflorum Lam. was 0 (Herbicidal ratio of 5% or lower (almost no effect)). The “N: Amaranthus retroflexus, herbicidal effect grade” value with Amaranthus retroflexus [1] and with Amaranthus retroflexus [7] was 0 (Herbicidal ratio of 5% or lower (almost no effect)) each time. Further, the “herbicidal effect on D” value in the data set on Leptochloa chinensis was 0 (Herbicidal ratio of 5% or lower (almost no effect)). Further, the “H: Echinochloa crus-galli var. crus-galli, herbicidal effect grade” value in data set [2] is 0 (Herbicidal ratio of 5% or lower (almost no effect)). For the same compound, the “g: rapeseed, effect grade on crop” value in the data set with rapeseed is reported as 0 (Herbicidal ratio of 5% or lower (almost no effect)). Also, the “f: beet, effect on crop grade” value in the data set with beet is 0 (Herbicidal ratio of 5% or lower (almost no effect)). In addition, the “R: Veronica persica, herbicidal effect grade” value in the data set with Veronica persica is 1 (Herbicidal ratio of 5% or higher and lower than 20%). Besides, the “e: wheat, effect on crop grade” value with wheat was 0 (Herbicidal ratio of 5% or lower (almost no effect)). Also, the “I: Avena fatua, herbicidal effect grade” value in the data set with Avena fatua was 1 (Herbicidal ratio of 5% or higher and lower than 20%). In addition, the “F: Digitaria ciliaris, herbicidal effect grade” value was 4 (Herbicidal ratio of 70% or higher and lower than 90%) in the data set on Digitaria ciliaris [3]; 0 (Herbicidal ratio of 5% or lower (almost no effect)) in the data set with Digitaria ciliaris [5]. Further, in data set [4], the “Herbicidal effect grade, A: Echinochloa oryzacola Vasing.” value is 0 (Herbicidal ratio of 5% or lower (almost no effect)). In addition, the “M: Abutilon theophrasti” value in the data set on Abutilon theophrasti is recorded as 0 (Herbicidal ratio of 5% or lower (almost no effect)). Further, in the data set with Apera spica-venti, the “L: Apera spica-venti” value is on record as 0 (Herbicidal ratio of 5% or lower (almost no effect)). The “O: Chenopodium album, herbicidal effect grade” value in the data set on Chenopodium album is 3 (Herbicidal ratio of 40% or higher and lower than 70%). The “b: directly sowed rice plant, effect on crop grade” value in the data set on rice plant was 4 (Herbicidal ratio of 70% or higher and lower than 90%). Also, the “Herbicidal effect grade, B” value in the data set with Scirpus juncoides was 0 (Herbicidal ratio of 5% or lower (almost no effect)). The “herbicidal effect on H” value in [6] is on record as 0 (Herbicidal ratio of 5% or lower (almost no effect)). Also, the “P: Stellaria media, herbicidal effect grade” value with Stellaria media was 2 (Herbicidal ratio of 20% or higher and lower than 40%).
For `COC(=O)C(C(C)=O)C1CC(O)=C(c2c(C)cc(C)cc2C)C1=O` (stereo not drawn) [2-003], the “K: Lolium multiflorum Lam., herbicidal effect grade” value in the data set with Lolium multiflorum Lam. is recorded as 5 (Herbicidal ratio of 90% or more (almost completely withered)). Moreover, the “N: Amaranthus retroflexus, herbicidal effect grade” value with Amaranthus retroflexus [1] and with Amaranthus retroflexus [7] was 0 (Herbicidal ratio of 5% or lower (almost no effect)) in each case. Also, the “herbicidal effect on D” value in the data set on Leptochloa chinensis is reported as 5 (Herbicidal ratio of 90% or more (almost completely withered)). Also, in data set [2], the “H: Echinochloa crus-galli var. crus-galli, herbicidal effect grade” value is 0 (Herbicidal ratio of 5% or lower (almost no effect)). Moreover, the “g: rapeseed, effect grade on crop” value in the data set on rapeseed is reported as 0 (Herbicidal ratio of 5% or lower (almost no effect)). For the same compound, the “f: beet, effect on crop grade” value with beet was 0 (Herbicidal ratio of 5% or lower (almost no effect)). Besides, the “R: Veronica persica, herbicidal effect grade” value in the data set on Veronica persica was 3 (Herbicidal ratio of 40% or higher and lower than 70%). Moreover, the “e: wheat, effect on crop grade” value with wheat is listed as 0 (Herbicidal ratio of 5% or lower (almost no effect)). In the data set on Avena fatua, the “I: Avena fatua, herbicidal effect grade” value is 5 (Herbicidal ratio of 90% or more (almost completely withered)). The “F: Digitaria ciliaris, herbicidal effect grade” value in the data set on Digitaria ciliaris [3] is 4 (Herbicidal ratio of 70% or higher and lower than 90%); with Digitaria ciliaris [5], 4 (Herbicidal ratio of 70% or higher and lower than 90%). Also, the “Herbicidal effect grade, A: Echinochloa oryzacola Vasing.” value in [4] is on record as 0 (Herbicidal ratio of 5% or lower (almost no effect)). In addition, the “M: Abutilon theophrasti” value in the data set with Abutilon theophrasti was 0 (Herbicidal ratio of 5% or lower (almost no effect)). Moreover, in the data set with Apera spica-venti, the “L: Apera spica-venti” value is reported as 5 (Herbicidal ratio of 90% or more (almost completely withered)). Moreover, the “O: Chenopodium album, herbicidal effect grade” value with Chenopodium album is 0 (Herbicidal ratio of 5% or lower (almost no effect)). Further, in the data set on rice plant, the “b: directly sowed rice plant, effect on crop grade” value is 5 (Herbicidal ratio of 90% or more (almost completely withered)). Also, the “Herbicidal effect grade, B” value with Scirpus juncoides is recorded as 0 (Herbicidal ratio of 5% or lower (almost no effect)). The “herbicidal effect on H” value in data set [6] was 5 (Herbicidal ratio of 90% or more (almost completely withered)). In the data set on Stellaria media, the “P: Stellaria media, herbicidal effect grade” value is listed as 0 (Herbicidal ratio of 5% or lower (almost no effect)).
